Source: ChEMBL document CHEMBL3046327, “Nicotinic acid hydrazones: a novel anticonvulsant pharmacophore” (Med Chem Res, 2011)
The source made the active and inactive calls. The calls are words filed in the database; no cut-off is given here.

These compounds were tested on Mus musculus (assay: Neurotoxicity in Mus musculus C57B/6 (mouse) assessed motor impairment at 300 mg/kg, ip after 4 hr by rotarod test). Details: in vivo.
Assay type: toxicity, organism-based
Parameters: dose 300 mg/kg, route intraperitoneal

SMILES | Activity
O=C(N/N=C/c1cccc(Cl)c1)c1ccccc1 | Non-toxic
O=C(N/N=C/c1ccccc1Br)c1ccncc1 | Non-toxic
Cc1ccc(C(=O)N/N=C/c2cccc(Br)c2)cc1 | Non-toxic
O=C(N/N=C/c1cccc(Br)c1)c1ccccc1 | Non-toxic
Cc1ccc(C(=O)N/N=C/c2cccc(Cl)c2)cc1 | Non-toxic
O=C(N/N=C/c1ccc(O)cc1)c1ccccc1 | Non-toxic
O=C(N/N=C/c1ccc([N+](=O)[O-])cc1)c1ccncc1 [N'-(4-NITROBENZYLIDENE)ISONICOTINOHYDRAZIDE] | Non-toxic
O=C(N/N=C/c1ccccc1[N+](=O)[O-])c1ccncc1 | Non-toxic
O=C(N/N=C/c1ccccc1F)c1ccncc1 | Non-toxic

These compounds were tested on Mus musculus (assay: Neurotoxicity in Mus musculus C57B/6 (mouse) assessed motor impairment at 300 mg/kg, ip after 0.5 hr by rotarod test). Details: in vivo.
Assay type: toxicity, organism-based
Parameters: dose 300 mg/kg, route intraperitoneal

SMILES | Activity
O=C(N/N=C/c1cccc(Cl)c1)c1ccccc1 | Non-toxic
O=C(N/N=C/c1ccccc1Br)c1ccncc1 | Non-toxic
Cc1ccc(C(=O)N/N=C/c2cccc(Br)c2)cc1 | Non-toxic
O=C(N/N=C/c1cccc(Br)c1)c1ccccc1 | Non-toxic
Cc1ccc(C(=O)N/N=C/c2cccc(Cl)c2)cc1 | Non-toxic
O=C(N/N=C/c1ccc(O)cc1)c1ccccc1 | Non-toxic
O=C(N/N=C/c1ccc([N+](=O)[O-])cc1)c1ccncc1 [N'-(4-NITROBENZYLIDENE)ISONICOTINOHYDRAZIDE] | Non-toxic
O=C(N/N=C/c1ccccc1[N+](=O)[O-])c1ccncc1 | Non-toxic
O=C(N/N=C/c1ccccc1F)c1ccncc1 | Non-toxic

These compounds were tested on Mus musculus (assay: Neurotoxicity in ip dosed Mus musculus C57B/6 (mouse) assessed motor impairment after 4 hr by rotarod test). Details: in vivo.
Assay type: toxicity, organism-based

SMILES | Activity
O=C(N/N=C/c1ccc(Cl)cc1)c1ccncc1 | 100 mg/kg
O=C1NC(=O)C(c2ccccc2)(c2ccccc2)N1 [PHENYTOIN] | 100 mg/kg

The compounds below were run on Mus musculus (assay: Neurotoxicity in ip dosed Mus musculus C57B/6 (mouse) assessed motor impairment after 0.5 hr by rotarod test). Details: in vivo.
Assay type: toxicity, organism-based

SMILES | Activity
O=C(N/N=C/c1ccc(Cl)cc1)c1ccncc1 | 100 mg/kg
O=C1NC(=O)C(c2ccccc2)(c2ccccc2)N1 [PHENYTOIN] | 100 mg/kg

The compounds below were run on Mus musculus (assay: Anticonvulsant activity in Mus musculus C57B/6 (mouse) assessed protection against subcutaneous pentylenetetrazole-induced seizures at 300 mg/kg, ip after 4 hr). Details: not given.
Assay type: functional, organism-based
Parameters: dose 300 mg/kg

SMILES | Activity
O=C(N/N=C/c1cccc(Cl)c1)c1ccccc1 | inactive
O=C(N/N=C/c1ccc(Cl)cc1)c1ccncc1 | inactive
O=C(N/N=C/c1ccccc1Br)c1ccncc1 | inactive
O=C1NC(=O)C(c2ccccc2)(c2ccccc2)N1 [PHENYTOIN] | inactive
Cc1ccc(C(=O)N/N=C/c2cccc(Br)c2)cc1 | inactive
O=C(N/N=C/c1cccc(Br)c1)c1ccccc1 | inactive
Cc1ccc(C(=O)N/N=C/c2cccc(Cl)c2)cc1 | inactive
O=C(N/N=C/c1ccc(O)cc1)c1ccccc1 | inactive
O=C(N/N=C/c1ccc([N+](=O)[O-])cc1)c1ccncc1 [N'-(4-NITROBENZYLIDENE)ISONICOTINOHYDRAZIDE] | inactive
O=C(N/N=C/c1ccccc1[N+](=O)[O-])c1ccncc1 | inactive
O=C(N/N=C/c1ccccc1F)c1ccncc1 | inactive

These compounds were tested on Mus musculus (assay: Anticonvulsant activity in Mus musculus C57B/6 (mouse) assessed protection against subcutaneous pentylenetetrazole-induced seizures at 300 mg/kg, ip after 0.5 hr). Details: not given.
Assay type: functional, organism-based
Parameters: dose 300 mg/kg

SMILES | Activity
O=C(N/N=C/c1cccc(Cl)c1)c1ccccc1 | inactive
O=C(N/N=C/c1ccc(Cl)cc1)c1ccncc1 | inactive
O=C(N/N=C/c1ccccc1Br)c1ccncc1 | inactive
O=C1NC(=O)C(c2ccccc2)(c2ccccc2)N1 [PHENYTOIN] | inactive
Cc1ccc(C(=O)N/N=C/c2cccc(Br)c2)cc1 | inactive
O=C(N/N=C/c1cccc(Br)c1)c1ccccc1 | inactive
Cc1ccc(C(=O)N/N=C/c2cccc(Cl)c2)cc1 | inactive
O=C(N/N=C/c1ccc(O)cc1)c1ccccc1 | inactive
O=C(N/N=C/c1ccc([N+](=O)[O-])cc1)c1ccncc1 [N'-(4-NITROBENZYLIDENE)ISONICOTINOHYDRAZIDE] | inactive
O=C(N/N=C/c1ccccc1[N+](=O)[O-])c1ccncc1 | inactive
O=C(N/N=C/c1ccccc1F)c1ccncc1 | inactive

What follows are compounds tested on Mus musculus (assay: Anticonvulsant activity in Mus musculus C57B/6 (mouse) assessed protection against maximal electroshock-induced seizures at 300 mg/kg, ip after 4 hr). Details: not given.
Assay type: functional, organism-based
Parameters: dose 300 mg/kg

SMILES | Activity
O=C(N/N=C/c1cccc(Cl)c1)c1ccccc1 | inactive
O=C(N/N=C/c1ccccc1Br)c1ccncc1 | inactive
Cc1ccc(C(=O)N/N=C/c2cccc(Br)c2)cc1 | inactive
O=C(N/N=C/c1cccc(Br)c1)c1ccccc1 | inactive
O=C(N/N=C/c1ccc(O)cc1)c1ccccc1 | inactive
O=C(N/N=C/c1ccc([N+](=O)[O-])cc1)c1ccncc1 [N'-(4-NITROBENZYLIDENE)ISONICOTINOHYDRAZIDE] | inactive
O=C(N/N=C/c1ccccc1[N+](=O)[O-])c1ccncc1 | inactive
O=C(N/N=C/c1ccccc1F)c1ccncc1 | inactive

These compounds were tested on Mus musculus (assay: Anticonvulsant activity in Mus musculus C57B/6 (mouse) assessed protection against maximal electroshock-induced seizures at 300 mg/kg, ip after 0.5 hr). Details: not given.
Assay type: functional, organism-based
Parameters: dose 300 mg/kg

SMILES | Activity
O=C(N/N=C/c1cccc(Cl)c1)c1ccccc1 | inactive
O=C(N/N=C/c1ccccc1Br)c1ccncc1 | inactive
Cc1ccc(C(=O)N/N=C/c2cccc(Br)c2)cc1 | inactive
O=C(N/N=C/c1cccc(Br)c1)c1ccccc1 | inactive
Cc1ccc(C(=O)N/N=C/c2cccc(Cl)c2)cc1 | inactive
O=C(N/N=C/c1ccc(O)cc1)c1ccccc1 | inactive
O=C(N/N=C/c1ccc([N+](=O)[O-])cc1)c1ccncc1 [N'-(4-NITROBENZYLIDENE)ISONICOTINOHYDRAZIDE] | inactive
O=C(N/N=C/c1ccccc1[N+](=O)[O-])c1ccncc1 | inactive
O=C(N/N=C/c1ccccc1F)c1ccncc1 | inactive

These compounds were tested on Mus musculus (assay: Anticonvulsant activity in ip dosed Mus musculus C57B/6 (mouse) assessed protection against maximal electroshock-induced seizures after 4 hr). Details: C57B/6, ip, read-out: MED.
Assay type: functional

SMILES | minimal effective dose
O=C(N/N=C/c1ccc(Cl)cc1)c1ccncc1 | 100 mg/kg
O=C1NC(=O)C(c2ccccc2)(c2ccccc2)N1 [PHENYTOIN] | 30 mg/kg
Cc1ccc(C(=O)N/N=C/c2cccc(Cl)c2)cc1 | 100 mg/kg

The compounds below were run on Mus musculus (assay: Anticonvulsant activity in ip dosed Mus musculus C57B/6 (mouse) assessed protection against maximal electroshock-induced seizures after 0.5 hr). Details: C57B/6, ip, read-out: MED.
Assay type: functional

SMILES | minimal effective dose
O=C(N/N=C/c1ccc(Cl)cc1)c1ccncc1 | 100 mg/kg
O=C1NC(=O)C(c2ccccc2)(c2ccccc2)N1 [PHENYTOIN] | 30 mg/kg
